Like-named read-outs stand apart in the source and are kept apart here.
Columns and labels:
[1] = target: Beta Secretase enzyme (BACE) (Homo sapiens (Human), UniProt P56817); experiment: In vitro enzymatic BACE FRET assay; assay type: biochemical; conditions: read-out: BACE 1 FRET assay IC50
Protocol: In Vitro Enzymatic BACE FRET (Fluorescence Resonance Energy Transfer) Assay (Enzyme Assay Data in the Example Table I)
The assay buffer used in this screen is 0.05 M acetate, pH 4.2, 10% DMSO final, 100 uM genapol (which is a nonionic detergent, below its Critical Micelle Concentration). […] This assay is effectively started by the addition of FRET substrate (50 nM) and the combination is incubated for one hour. The FRET assay is terminated with by addition of Tris buffer, which raises the pH to neutrality, and the fluorescence is determined. The FRET substrate is a peptide with commercially available fluorophore and quencher, on opposite sides of the BACE cleavage site.

Cathepsin D (Cat D) = Cathepsin D (Cat D) (Homo sapiens (Human), UniProt P07339); experiment: In vitro enzymatic Cathepsin D (Cat D) FRET assay; assay type: biochemical; conditions: read-out: CatD IC50
Outline: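 CHO-expressed recombinant Cat D cleaves a fluorophore/quencher FRET peptide (20 nM) in 0.05 M citrate pH 3.5, 5 mM CHAPS, 10% DMSO final, over 1 h. Tris addition neutralizes pH to stop the reaction; fluorescence read at excitation 500 nm, emission 580 nm.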

[2] = system: Aβ40 in conditioned medium of cells stably expressing Amyloid Precursor Protein (APP); experiment: In vitro BACE cell-based assay (Aβ40 sandwich ELISA); conditions: Homo sapiens
Protocol: In Vitro BACE Cell-Based Assay
The cell-based assay measures inhibition or reduction of Aβ40 in conditioned medium of test compound treated cells expressing amyloid precursor protein.
Cells stably expressing Amyloid Precursor Protein (APP) were plated at a density of 40K cells/well in 96 well plates (Costar). The cells were cultivated for 24 hours at 37° C. and 5% CO2 in DMEM supplemented with 10% FBS. The test compounds were then added to cells in 10-point dose response concentrations with the starting concentration being either 100 μM or 10 μM. The compounds were diluted from stock solutions in DMSO and the final DMSO concentration of the test compounds on cells was 0.1%. After 24 h of incubation with the test compounds the supernatant conditioned media was collected and the Aβ 40 levels were determined using a sandwich ELISA. The IC50 of the compound was calculated from the percent of control or percent inhibition of Aβ 40 as a function of the concentration of the test compound.
The sandwich ELISA to detect Aβ 40 was performed in 96 well microtiter plates, which were pre-treated with goat anti-rabbit IgG (Pierce). The capture and detecting antibody pair that were used to detect Aβ 40 from cell supernatants were affinity purified pAb40 (Biosource) and biotinylated 6E10 (Signet Labs Inc.), respectively. The optimal concentration for the pAb40 antibody was 3 μg/ml in Superblock/TBS (Pierce) that was supplemented with 0.05% Tween 20 (Sigma).
Cellular supernatants were incubated with the capture antibody for 3 h at 4° C., followed by 3 wash steps in TBS-tween (0.05%). The detecting antibody incubation was for 2 h at 4° C., again followed by the wash steps as described previously. The final readout of the ELISA is Time-Resolved Fluorescence (counts per minute) using Delfia reagents Streptavidin-Europium and Enhancement solutions (Perkin Elmer) and the Victor 2 multilabel counter (Perkin Elmer).

[3] = average IC50, BACE enzyme assay
[4] = average IC50, cathepsin D enzyme assay
[5] = HEK293, average IC50, HEK cell assay, read-out: HEK cell assay IC50
[6] = HEK293, HEK cells, average, read-out: HEK cell assay IC50
[7] = HEK293, read-out: HEK cell assay IC50

Sequence of Beta Secretase enzyme (BACE) (P56817 46-501): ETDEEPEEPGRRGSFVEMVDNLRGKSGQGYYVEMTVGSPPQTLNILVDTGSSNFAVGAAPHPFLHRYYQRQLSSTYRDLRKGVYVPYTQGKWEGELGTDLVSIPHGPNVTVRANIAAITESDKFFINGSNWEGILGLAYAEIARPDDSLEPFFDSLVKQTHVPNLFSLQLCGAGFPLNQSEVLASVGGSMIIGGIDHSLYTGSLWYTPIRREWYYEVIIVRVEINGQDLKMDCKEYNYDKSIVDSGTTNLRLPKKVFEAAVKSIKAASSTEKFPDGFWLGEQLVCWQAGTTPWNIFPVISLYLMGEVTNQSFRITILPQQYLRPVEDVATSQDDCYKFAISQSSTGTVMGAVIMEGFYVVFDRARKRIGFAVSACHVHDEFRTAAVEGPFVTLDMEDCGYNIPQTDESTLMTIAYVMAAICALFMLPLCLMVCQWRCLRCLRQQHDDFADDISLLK
Sequence of Cathepsin D (Cat D) (P07339 65-412, species assumed): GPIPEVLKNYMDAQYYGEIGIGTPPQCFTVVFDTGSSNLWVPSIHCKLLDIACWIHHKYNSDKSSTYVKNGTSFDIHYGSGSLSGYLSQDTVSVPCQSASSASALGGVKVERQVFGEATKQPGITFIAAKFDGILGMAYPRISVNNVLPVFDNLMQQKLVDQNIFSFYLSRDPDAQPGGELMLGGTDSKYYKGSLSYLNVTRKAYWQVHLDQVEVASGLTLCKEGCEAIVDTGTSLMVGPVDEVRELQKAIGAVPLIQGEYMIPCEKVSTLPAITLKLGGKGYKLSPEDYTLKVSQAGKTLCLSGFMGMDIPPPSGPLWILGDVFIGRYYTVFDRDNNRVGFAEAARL

| IC50 [1, 3] [µM] | IC50 (Cathepsin D (Cat D); [4]) [µM] | IC50 [2, 5] [µM] | IC50 ([1]; average) [µM] | IC50 (Cathepsin D (Cat D); average) [µM] | IC50 [2, 6] [µM] | Compound | further results |
| --- | --- | --- | --- | --- | --- | --- | --- |
| 1.57 | 1930 | 3.26 | – | – | – | NC1=N[C@](CF)(c2cc(Oc3cccc(Cl)n3)ccc2F)C[C@@H](C(F)(F)F)O1 [Example 100, (4S,6S)-4-(5-((6-chloropyridin-2-yl)oxy)-2-fluorophenyl)-4-(fluoromethyl)-6-(trifluoromethyl)-5,6-dihydro-4H-1,3-oxazin-2-amine] | – |
| > 40 | > 400 | > 15.6 | 0.002 | 505 | 0.002 | C#CCOc1cnc(C(=O)Nc2cc(F)c(F)c([C@]3(C)C[C@@H](C(F)(F)F)OC(N)=N3)c2)cn1 [Example 190, N-(3-((4S,6S)-2-amino-4-methyl-6-(trifluoromethyl)-5,6-dihydro-4H-1,3-oxazin-4-yl)-4,5-difluorophenyl)-5-(prop-2-yn-1-yloxy)pyrazine-2-carboxamide] | – |
| – | – | – | 0.032 | 775 | 0.028 | Cc1cc(OC(F)F)cnc1C(=O)Nc1cc(C)c(F)c([C@]2(CF)C[C@@H](C(F)(F)F)OC(N)=N2)c1 [Example 228, N-(3-((4S,6S)-2-amino-4-(fluoromethyl)-6-(trifluoromethyl)-5,6-dihydro-4H-1,3-oxazin-4-yl)-4-fluoro-5-methylphenyl)-5-(difluoromethoxy)-3-methylpicolinamide] | – |
| – | – | – | 5.6 | 1130 | 4.6 | NC1=N[C@](CF)(c2cc(C#Cc3cccc4cc[nH]c34)ccc2F)C[C@@H](C(F)(F)F)O1 [Example 133, (4S,6S)-4-(5-((1H-indol-7-yl)ethynyl)-2-fluorophenyl)-4-(fluoromethyl)-6-(trifluoromethyl)-5,6-dihydro-4H-1,3-oxazin-2-amine] | – |
| 0.024 | 844 | 0.031 | – | – | – | C[C@@]1(c2cc(NC(=O)c3nn(C(F)F)cc3Cl)cnc2F)C[C@@H](C(F)(F)F)OC(N)=N1 [Example 72, N-(5-((4S,6S)-2-amino-4-methyl-6-(trifluoromethyl)-5,6-dihydro-4H-1,3-oxazin-4-yl)-6-fluoropyridin-3-yl)-4-chloro-1-(difluoromethyl)-1H-pyrazole-3-carboxamide] | – |
| – | – | – | > 40 | > 133 | 8.17 | NC1=N[C@](CF)(c2cc(Oc3cc(-c4ccccc4)cc(Cl)n3)ccc2F)C[C@@H](C(F)(F)F)O1 [Example 235, (4S,6S)-4-(5-((6-chloro-4-phenylpyridin-2-yl)oxy)-2-fluorophenyl)-4-(fluoromethyl)-6-(trifluoromethyl)-5,6-dihydro-4H-1,3-oxazin-2-amine] | – |
| – | – | – | 0.023 | 488 | 0.012 | C[C@@]1(c2cc(NC(=O)c3ccc(C#N)cn3)cc(Cl)c2F)C[C@@H](C(F)(F)F)OC(N)=N1 [Example 206, N-(3-((4S,6S)-2-amino-4-methyl-6-(trifluoromethyl)-5,6-dihydro-4H-1,3-oxazin-4-yl)-5-chloro-4-fluorophenyl)-5-cyanopicolinamide] | – |
| 0.072 | > 400 | 0.088 | – | – | – | NC1=N[C@](CF)(c2cc(NC(=O)c3ccc(C(F)F)cn3)ccc2F)C[C@@H](C(F)(F)F)O1 [Example 41, N-(3-((4S,6S)-2-amino-4-(fluoromethyl)-6-(trifluoromethyl)-5,6-dihydro-4H-1,3-oxazin-4-yl)-4-fluorophenyl)-5-(difluoromethyl)picolinamide] | – |
| – | – | – | < 0.002 | 554 | 0.001 | C#CCOc1cnc(C(=O)Nc2cc(Cl)c(F)c([C@]3(C)C[C@@H](C(F)(F)F)OC(N)=N3)c2)cn1 [Example 212, N-(3-((4S,6S)-2-amino-4-methyl-6-(trifluoromethyl)-5,6-dihydro-4H-1,3-oxazin-4-yl)-5-chloro-4-fluorophenyl)-5-(prop-2-yn-1-yloxy)pyrazine-2-carboxamide] | – |
| – | – | – | 0.021 | > 400 | 0.015 | C[C@@]1(c2cc(NC(=O)c3cnc(OCC(F)(F)F)cn3)cc(F)c2F)C[C@@H](C(F)(F)F)OC(N)=N1 [Example 186, N-(3-((4S,6S)-2-amino-4-methyl-6-(trifluoromethyl)-5,6-dihydro-4H-1,3-oxazin-4-yl)-4,5-difluorophenyl)-5-(2,2,2-trifluoroethoxy)pyrazine-2-carboxamide] | – |
| – | – | – | 0.048 | 780 | 0.049 | COc1cnc(C(=O)Nc2cc(C)c(F)c([C@]3(CF)C[C@@H](C(F)(F)F)OC(N)=N3)c2)c(C)c1 [Example 226, N-(3-((4S,6S)-2-amino-4-(fluoromethyl)-6-(trifluoromethyl)-5,6-dihydro-4H-1,3-oxazin-4-yl)-4-fluoro-5-methylphenyl)-5-methoxy-3-methylpicolinamide] | – |
| 0.118 | > 14.8 | 0.336 | – | – | – | NC1=N[C@](CF)(c2cc(Nc3nccc4nc(C(F)(F)F)cnc34)ccc2F)C[C@@H](C(F)(F)F)O1 [Example 18, (4S,6S)-4-(2-fluoro-5-((2-(trifluoromethyl)pyrido[3,4-b]pyrazin-5-yl)amino)phenyl)-4-(fluoromethyl)-6-(trifluoromethyl)-5,6-dihydro-4H-1,3-oxazin-2-amine] | – |
| 0.079 | > 400 | 0.055 | – | – | – | N#Cc1ccc(C(=O)Nc2ccc(F)c([C@]3(CF)C[C@@H](C(F)(F)F)OC(N)=N3)n2)nc1 [Example 134, N-(6-((4S,6S)-2-amino-4-(fluoromethyl)-6-(trifluoromethyl)-5,6-dihydro-4H-1,3-oxazin-4-yl)-5-fluoropyridin-2-yl)-5-cyanopicolinamide] | – |
| – | – | – | – | – | – | COc1cnc2c(Nc3ccc(F)c([C@]4(CF)C[C@@H](C(F)(F)F)OC(N)=N4)c3)nccc2n1 (racemic) [Example 9, (4S,6S)-4-(2-fluoro-5-((2-methoxypyrido[3,4-b]pyrazin-5-yl)amino)phenyl)-4-(fluoromethyl)-6-(trifluoromethyl)-5,6-dihydro-4H-1,3-oxazin-2-amine] | IC50 ([1]; average IC50): 0.05 µM; IC50 (Cathepsin D (Cat D); average IC50): > 400 µM; IC50 ([2]; HEK293, average IC50, HEK cells, read-out: HEK cell assay IC50): 0.372 µM |
| – | – | – | 0.015 | 622 | 0.035 | COc1ccc(C(=O)Nc2cc(Cl)c(F)c([C@]3(C)C[C@@H](C(F)(F)F)OC(N)=N3)c2)nc1 [Example 209, N-(3-((4S,6S)-2-amino-4-methyl-6-(trifluoromethyl)-5,6-dihydro-4H-1,3-oxazin-4-yl)-5-chloro-4-fluorophenyl)-5-methoxypicolinamide] | – |

| Compound | IC50 [1, 3] [µM] | IC50 (Cathepsin D (Cat D); [4]) [µM] | IC50 [2, 5] [µM] | IC50 ([1]; average) [µM] | IC50 (Cathepsin D (Cat D); average) [µM] | IC50 [2, 6] [µM] | further results |
| --- | --- | --- | --- | --- | --- | --- | --- |
| C[C@@]1(c2cc(NC(=O)c3ncc(Br)cc3Cl)cc(F)c2F)C[C@@H](C(F)(F)F)OC(N)=N1 [Example 240, N-(3-((4S,6S)-2-amino-4-methyl-6-(trifluoromethyl)-5,6-dihydro-4H-1,3-oxazin-4-yl)-4,5-difluorophenyl)-5-bromo-3-chloropicolinamide] | – | – | – | 0.02 | 928 | – | IC50 [2, 7]: 0.022 µM |
| NC1=N[C@](CF)(c2cc(-c3nc4ccc(Cl)cc4o3)ccc2F)C[C@@H](C(F)(F)F)O1 [Example 105, (4S,6S)-4-(5-(6-chlorobenzo[d]oxazol-2-yl)-2-fluorophenyl)-4-(fluoromethyl)-6-(trifluoromethyl)-5,6-dihydro-4H-1,3-oxazin-2-amine] | 0.542 | > 44.4 | – | – | – | – | IC50 [2, 7]: 2.81 µM |

— patent publication US9296734B2 (AMGEN INC., priority 2013, dated 2016)
